Data on 50 compounds can be found in ChEMBL document CHEMBL3301451, “MMV Malaria Box gametocyte functional viability assay screening”.

Format in all cases: functional
Parameters in all cases: concentration or dose not given beside the values

Test [1] deals with Plasmodium falciparum. Nature of the test: MMV: P. falciparum NF54 functionally mature Stage V gametocytes were incubated for 24 hr in the presence of the test compounds. Gamete formation was then triggered by addition of 2uM xantheurenic acid and temperature decrease to ~20C. Male gamete exflagellation was recorded and analysed by automated microscopy after 20 min. All compounds were tested in 4 independent experiments and data presented here is the mean.

Test [2] has as its system Plasmodium berghei. Kind of test: MMV: P. berghei-infected blood was withdrawn from mice by cardiac pucture before being immediately added to ookinete culture medium containing test compounds. 26 hr later, GFP-positive ookinetes were identified and counted by automated microscopy. All compounds were tested in 4 independent experiments and data presented here is the mean.

Test [3] relates to Plasmodium falciparum. Kind of test: MMV: P. falciparum NF54 functionally mature Stage V gametocytes were incubated for 24 hr in the presence of the test compounds. Gamete formation was then triggered by addition of 2uM xantheurenic acid and temperature decrease to ~20C. Female gamete formation was recorded 24 hr later by automated microscopy detection of surface labelling of female gametes with a Cy3-conjugated antibody reactive to Pfs25. All compounds were tested in 4 independent experiments and data presented here is the mean. The settings on record: NF54, 24 h.

The term inhibition denotes the change of the read-out against control, counted positive when it falls.

For `Cc1cc(Nc2ccc(Cl)cc2)n2nc(C(F)(F)F)nc2n1`, the values for the inhibition in test [1], in test [2] and in test [3] were 15.3%, -18.89% and -10.6%, respectively.

`O=C(Nc1ccc(Br)cc1)Nc1cccc(Cl)c1`: the inhibition in test [1] was 24.2%; in test [2], -16.14%; in test [3] it was -16.5%.

Take `Cc1ccc(-c2nc3ccccc3o2)cc1NCc1cc(Cc2ccccc2)ccc1O`: the inhibition in test [1] was 13.9%; in test [2], -14.9%; in test [3], -8.19%.

For `Nc1ccc(-c2nc3cc(Cc4ccc5[nH]c(-c6ccc(N)cc6)nc5c4)ccc3[nH]2)cc1`, the inhibition is 26.6% in test [1], -14.26% in test [2] and 2.76% in test [3].

On to `CCOC(=O)C1=C(C)N=c2sc(=Cc3ccccc3O)c(=O)n2C1c1ccc(OC)c2ccccc12` (stereo not given), for which the inhibition in test [1] was -4.7%; in test [2] it was 3.682%; in test [3] it was -23.7%.

For the compound `CN(N=O)C1=C(NC2CCCCC2)C(=O)c2ccccc2C1=O`, the inhibition in test [1] was 10.5%; in test [2], -8.019%; in test [3], -27.6%.

Consider `Cc1sc(NC(=O)c2ccco2)c(C(c2cccnc2)N2CCC(Cc3ccccc3)CC2)c1C` (stereo not given), for which the inhibition in test [1] is 9.35%; in test [2], -7.977%; in test [3], -26%.

As to `COc1ccc(CNC(=O)c2cc3c(=O)n4ccccc4nc3n(CCc3ccccc3)c2=N)cc1`, the inhibition in test [1] is -25%; in test [2], -21.18%; in test [3], 0.565%.

As for `CN1CCN(c2ccc(Nc3c4ccccc4nc4ccccc34)cc2)CC1`, the inhibition in test [1] was 56.4%; in test [2] it was 3.384%; in test [3], -3.1%.

As for `CCN(CC)CCNc1ncnc2c1[nH]c1ccc(Cl)cc12`, the inhibition in test [1] is -43.5%; in test [2], -19.34%; in test [3], -27.6%.

Consider `Cc1ccc(-c2cc3c(nn2)-c2ccccc2C3=O)cc1`, for which the inhibition was 30.4% in test [1], 22.47% in test [2] and -20.4% in test [3].

With `OC(CNC1CCCCC1)Cn1c2ccccc2c2ccccc21` (stereo not given), the inhibition in test [1] was 12.1%; in test [2], 28.1%; in test [3], 4.91%.

With `CCOc1c(Cl)cc(CNCC(O)c2ccccc2)cc1OC` (stereo not given), the inhibition in test [1] was -11.9%; in test [2], -11.86%; in test [3], -14.1%.

As for `CCCc1cc(O)c2c3c(c(=O)oc2c1)CN(C)CC3`, the results for the inhibition in test [1], in test [2] and in test [3] were 2.76%, -29.34% and -29.9%, respectively.

As for `Cc1cccc(Nc2nc(N)c3ccccc3n2)c1.Cl`, the inhibition was -38.3% in test [1], -25.03% in test [2] and -22.2% in test [3].

On to `Nc1ccn([C@@H]2O[C@H](CO)[C@@H](O)[C@H]2O)c(=O)n1` [CYTIDINE], for which the values for the inhibition in test [1], in test [2] and in test [3] were -18.8%, -17.3% and -25.7%, respectively.

In the case of `CCN(CC)CCCNc1ccnc2cc3ccccc3cc12`, the values for the inhibition in test [1], in test [2] and in test [3] were 30.2%, -14.18% and 20.2%, respectively.

For `Clc1ccc2c(N3CCCC3)ccnc2c1`, the inhibition in test [1] was 33.7%; in test [2], -9.994%; in test [3] it was 5.78%.

Consider `CCCc1c(C)nc2ccccc2c1O`, for which the inhibition in test [1] was determined as 66.4%; in test [2], 34.59%; in test [3] it was 1.84%.

Take `CCOc1ccccc1CNC(=O)C1c2ccccc2C(=O)N(CC(C)C)C1c1cccs1` (stereo not given): the inhibition in test [1] was 15.7%; in test [2], 3.43%; in test [3], -3.09%.

On to `Oc1ccc(Br)cc1CN1CCN(Cc2ccc(Cl)cc2)CC1`, for which the inhibition was -54.3% in test [1], -27.93% in test [2] and -35.8% in test [3].

Turning to `CCCCN(CCCC)S(=O)(=O)c1ccc(NC(=O)c2ccco2)cc1`, the results for the inhibition in test [1], in test [2] and in test [3] were 30.9%, -10.62% and -25.1%, respectively.

As for `Oc1c(CN2CCN(c3ccccc3F)CC2)cc(Br)c2cccnc12`, the results for the inhibition in test [1], in test [2] and in test [3] were 5.41%, 34.85% and 31.5%, respectively.

As for `Cc1ccc2cc3c(N)c4c(C)ccc(C)c4nc3nc2c1`, the inhibition was -9.27% in test [1], -10.8% in test [2] and -28.1% in test [3].

As to `Cc1ccc(Nc2nc(N)c3ccccc3n2)cc1Cl`, the inhibition was -51.8% in test [1], -5.317% in test [2] and -26.1% in test [3].

As to `O=C1c2ccccc2-c2nnc(-c3ccc(Br)cc3)cc21`, the inhibition in test [1] is 19.4%; in test [2], 9.656%; in test [3], -19.6%.

As to `CCN(CC)CCCNc1nc(-c2ccc(Cl)cc2)nc2ccccc12`, the inhibition was -49.2% in test [1], -4.546% in test [2] and -19.2% in test [3].

As for `N=c1c2ccccc2nnn1-c1cccc(C(F)(F)F)c1`, the inhibition in test [1] was 51.2%; in test [2], -9.695%; in test [3], 7.15%.

As for `Cc1ccc(CSCc2ccc(C(=O)NC3CC3)o2)cc1`, the inhibition in test [1] was 34.4%; in test [2], 11.64%; in test [3], -29.1%.

As for `O=C(Nc1ccc(-c2nc3ccccc3[nH]2)cc1)c1ccc(Cl)c(Cl)c1`, the inhibition in test [1] is 4.23%; in test [2], -25.94%; in test [3], -34.9%.

Regarding `COc1ccccc1CNC(=O)CCn1c(=O)[nH]c2ccsc2c1=O`, the inhibition in test [1] is 22.3%; in test [2], -0.4809%; in test [3], -26.3%.

For `COc1cc(OC)cc(N2C(=O)N(Cc3ccc(C(C)(C)C)cc3)c3ccccc3S2(=O)=O)c1`, the inhibition in test [1] was 8.32%; in test [2], -1.934%; in test [3] it was -7.89%.

`CCCOCc1cc(CN2CCN(c3cccc(Cl)c3)CC2)c(O)c2ncccc12`: the results for the inhibition in test [1], in test [2] and in test [3] were 19%, -5.698% and 14.3%, respectively.

`COc1ccc2nc(C)cc(Nc3cccc(O)c3)c2c1.Cl`: the inhibition is -12.1% in test [1], -5.92% in test [2] and -5.48% in test [3].

For the compound `COc1cccc(Nc2nc(N)c3ccccc3n2)c1.Cl`, the inhibition in test [1] is -35.2%; in test [2], -11.42%; in test [3], -36.4%.

For `N=c1n(CCN2CCCCC2)c2ccccc2n1CC(=O)c1ccc(Cl)c(Cl)c1`, the inhibition in test [1] was -14.4%; in test [2] it was -13.93%; in test [3], -16.3%.

Consider `O=C(NCC1Cc2cccc(-c3ccncc3)c2O1)c1csc2c1CCCC2` (stereo not given), for which the inhibition in test [1] is 20.6%; in test [2], -13.38%; in test [3] it was -19.3%.

As for `COc1ccc(CCN2C(=O)c3[nH]nc(-c4cc(Cl)c(C)cc4O)c3C2c2ccccc2F)cc1` (stereo not given), the inhibition in test [1] was -17.3%; in test [2], -13.65%; in test [3], -34.2%.

`O=C(NCC(c1ccsc1)N1CCCCCC1)c1ccc(C(F)(F)F)cc1` (stereo not given): the inhibition in test [1] is -14.6%; in test [2] it was -31.95%; in test [3] it was -37.4%.

As for `COc1ccc(-c2cc(=O)oc3c4c(ccc23)OCN(Cc2ccc(F)cc2)C4)cc1`, the inhibition is -29.3% in test [1], -11.79% in test [2] and -14.6% in test [3].

On to `Cc1ccc(OCCCCCCNCCO)c(C)c1`, for which the inhibition in test [1] was -19.1%; in test [2] it was -11.75%; in test [3], 0.189%.

With `CN1C=C(c2ccc3ccccc3n2)C(c2c[nH]c3ccccc23)c2ccccc21` (stereo not given), the inhibition was -6.39% in test [1], -19.58% in test [2] and -36.4% in test [3].

Consider `CCC(O)c1ccc(Br)cc1NC(=O)c1cccc(Cl)c1` (stereo not given), for which the inhibition in test [1] is 4.9%; in test [2], -8.417%; in test [3] it was -44%.

Take `O=c1nc(C=Cc2ccc(Br)cc2)oc2ccccc12`: the inhibition in test [1] came to 35.1%; in test [2], 19.61%; in test [3], 4.96%.

Consider `CN1CCN(c2ncnc3c2[nH]c2ccc(Cl)cc23)CC1`, for which the inhibition in test [1] was -2.21%; in test [2] it was -3.248%; in test [3], 6.75%.

On to `COc1cc(-c2nc(-c3ccccc3)c(-c3ccccc3)[nH]2)cc(OC)c1O`, for which the inhibition in test [1] was 5%; in test [2] it was -13.75%; in test [3] it was -41.1%.

In the case of `Cc1ccccc1OCCSc1nc2ccc(NC(=O)c3cccs3)cc2s1`, the inhibition in test [1] was 11.6%; in test [2], -6.357%; in test [3], -2.71%.

As for `CCOc1ccc(Nc2c3ccccc3nc3ccccc23)cc1.Cl`, the inhibition is 21.7% in test [1], 63.73% in test [2] and -9.14% in test [3].

For the compound `CCCCOC(=O)c1ccc(Nc2cc(C)nc3ccc(OC)cc23)cc1`, the inhibition in test [1] is -6.31%; in test [2], -4.495%; in test [3] it was -6.56%.

Take `Cc1ccc(C2CC(C(F)(F)F)n3nc(C(=O)N4CCN(C(c5ccccc5)c5ccccc5)CC4)cc3N2)cc1` (stereo not given): the figures for the inhibition in test [1], in test [2] and in test [3] were 8.58%, 12.55% and -8.56%, respectively.
